Results from US10004225B2, “Wearable insect repelling patch” (S. C. Johnson & Son, Inc., priority 2005, dated 2018).
Where two headings read alike, the source gives them in different places.

What was measured:
[1] = cited from earlier work
mosquitoes = experiment: Three-chamber test apparatus, mosquito personal area repellency of hung patches with human test subject as attractant; format: in vivo; settings: for personal area control (result in words): no adhesive layer
Description: Various patch sizes and insect repellents were tested, initially using the test apparatus shown schematically generally at 20 in FIG. 3. The test apparatus 20 has a sample chamber 22, connected to a mosquito chamber 24, which is connected via an opening 34 to a remote chamber 26. Each chamber is generally cubical, with a volume of about 0.43 m^3.
The sample chamber 22 has an open end 28 on the side remote from the mosquito chamber 24. A screen 30 divides the sample chamber 22 from the mosquito chamber 24. The opening 34 between the mosquito chamber 24 and the remote chamber 26 is slightly constricted by side walls 32. However, the opening 34 is still sufficiently large that mosquitoes can freely move between the mosquito and remote chambers 24 and 26.
Four, screened, low-flow exhaust ports 36 are located in the side walls 32, the exhaust ports facing the open end 28. Air is drawn through the exhaust ports 36 and exhausted from the mosquito chamber 24 at a rate sufficient to draw air in through the open end 28 but insufficient to affect the flying of mosquitoes placed in the mosquito chamber 24 or to disturb the air in the remote chamber 26.
For each test, a human test subject 38 is placed at the open end 28 of the sample chamber 22, the test subject's breath providing the warmth, CO2, and moisture known to be human attractants for mosquitoes. The exhaust ports 36 pull air, along with those attractants, though the open end 28 and on through the sample chamber 22, the screen 30, and the mosquito chamber 24. The attractants thus leave the apparatus 20 without entering the remote chamber 26.
Mosquitoes are placed in the mosquito chamber 24 and are quickly attracted to the screen 30 by the human attractants. The open end 28 is large enough to expose primarily the upper torso and head of the test subject. Two patches 10 are hung one foot into the sample chamber 22 and approximately 20 cm down from the chamber's top (except as was done otherwise in particular experiments, as is noted, below).
Percent repellency was calculated as the percent of mosquitoes that had been initially introduced into the mosquito chamber 24 (most of which were attracted to the screen 30 before the patches 10 were put in place), that then were repelled from the screen when the patches were introduced. The “repellency” indicated in the table, below, for time zero reflects the mosquitoes that were not yet attracted to the screen 30 by the time the test patches 10 were introduced. […] The patches 10 used were 103 cm^2 in size, with no adhesive layer 18.
The patch material was a non-woven cloth material comprised of rayon, polyester, and polypropylene (as described in published U.S. Patent Application US20040082248), dosed with 60 mg of the active ingredient. The controls used no patches.
The same test apparatus 20 was used in the same way as described in Example 1, with the following changes. When a test included four patches 10, two were hung as in Example 1, and two were hung about 13 cm from the bottom of the chamber to simulate patches worn on the shoulders and at the waist of a user. In one test, as indicated in the table, below, the patches 10 were attached to the test subject's chest. Each individual patch was treated with the amount of insect repellent indicated. Time is shown in minutes.

[2] = Example 1, 2 patches 103 cm^2, 60 mg each
[3] = Example 1, 2 patches 103 cm^2, 60 mg each, no adhesive, 5 min
[4] = Example 1, 2 patches 103 cm^2, 60 mg each, no adhesive, 10 min
[5] = Example 1, 2 patches 103 cm^2, 60 mg each, no adhesive, 15 min
[6] = Example 1, 2 patches 103 cm^2, 60 mg each, no adhesive, 20 min
[7] = Example 1, 2 patches 103 cm^2, 60 mg each, no adhesive, time 0 min (mosquitoes not yet attracted to screen)

Compound: CC1(C)[C@H](C=C(Cl)Cl)[C@H]1C(=O)OCc1c(F)c(F)cc(F)c1F [transfluthrin, (1R-trans)-(2,3,5,6-tetrafluorophenyl)-methyl-3-(2,2-dichloroethenyl)-2,2-dimethylcyclopropanecarboxylate]
- Vapor pressure ([1]; @ 20° C.): 3.0 × 10^−6 mmHg @
- personal area repellency (result in words) (mosquitoes; [2]): successful personal area repellency
- % Repellency (mosquitoes; [3]): 54%
- % Repellency (mosquitoes; [4]): 75%
- % Repellency (mosquitoes; [5]): 90%
- % Repellency (mosquitoes; [6]): 92%
- % Repellency (mosquitoes; [7]): 13%
- % Repellency (mosquitoes; Example 2, 2 patches 25.8 cm^2, 30 mg each, 0 min): 13
- % Repellency (mosquitoes; Example 2, 2 patches 25.8 cm^2, 30 mg each, 5 min): 41
- % Repellency (mosquitoes; Example 2, 2 patches 25.8 cm^2, 30 mg each, 10 min): 68
- % Repellency (mosquitoes; Example 2, 2 patches 25.8 cm^2, 30 mg each, 15 min): 74
- % Repellency (mosquitoes; Example 2, 2 patches 25.8 cm^2, 30 mg each, 20 min): 79
- % Repellency (mosquitoes; Example 2, 2 patches 103.22 cm^2 taped to test subject's chest, 60 mg each, 0 min): 19
- % Repellency (mosquitoes; Example 2, 2 patches 103.22 cm^2 taped to test subject's chest, 60 mg each, 5 min): 33
- % Repellency (mosquitoes; Example 2, 2 patches 103.22 cm^2 taped to test subject's chest, 60 mg each, 10 min): 44
- % Repellency (mosquitoes; Example 2, 2 patches 103.22 cm^2 taped to test subject's chest, 60 mg each, 15 min): 52
- % Repellency (mosquitoes; Example 2, 2 patches 103.22 cm^2 taped to test subject's chest, 60 mg each, 20 min): 81
- % Repellency (mosquitoes; Example 2, 4 patches 6.45 cm^2, 120 mg each, 0 min): 11
- % Repellency (mosquitoes; Example 2, 4 patches 6.45 cm^2, 120 mg each, 5 min): 21
- % Repellency (mosquitoes; Example 2, 4 patches 6.45 cm^2, 120 mg each, 10 min): 32
- % Repellency (mosquitoes; Example 2, 4 patches 6.45 cm^2, 120 mg each, 15 min): 42
- % Repellency (mosquitoes; Example 2, 4 patches 6.45 cm^2, 120 mg each, 20 min): 47
- % Repellency (mosquitoes; Example 2, 4 patches* 6.45 cm^2, 60 mg each, 4th patch added 10 minutes into test, 0 min): 5
- % Repellency (mosquitoes; Example 2, 4 patches* 6.45 cm^2, 60 mg each, 4th patch added 10 minutes into test, 5 min): 26
- % Repellency (mosquitoes; Example 2, 4 patches* 6.45 cm^2, 60 mg each, 4th patch added 10 minutes into test, 10 min): 47
- % Repellency (mosquitoes; Example 2, 4 patches* 6.45 cm^2, 60 mg each, 4th patch added 10 minutes into test, 15 min): 47
- % Repellency (mosquitoes; Example 2, 4 patches* 6.45 cm^2, 60 mg each, 4th patch added 10 minutes into test, 20 min): 47
- personal area control (result in words) (mosquitoes; Example 2, total area of patches at least 51.6 cm^2 (2 patches, each 25.8 cm^2)): successful personal area control

Compound: CC=C[C@@H]1[C@@H](C(=O)OCc2c(F)c(F)c(C)c(F)c2F)C1(C)C (racemic) [profluthrin, 2,3,5,6-tetrafluoro-4-methylbenzyl (EZ)-(1RS,3RS)-2,2-dimethyl-3-(prop-1-enyl)-cyclopropanecarboxylate]
- Vapor pressure ([1]; @ 25° C.): 7.73 × 10^−5 mmHg @
- personal area repellency (result in words) (mosquitoes; [2]): successful personal area repellency
- % Repellency (mosquitoes; [3]): 55%
- % Repellency (mosquitoes; [4]): 67%
- % Repellency (mosquitoes; [5]): 91%
- % Repellency (mosquitoes; [6]): 93%
- % Repellency (mosquitoes; [7]): 6%

Compound: C#C[C@@H](OC(=O)[C@@H]1[C@@H](C=C(C)C)C1(C)C)C(C)=CCC (racemic) [emphenthrin, (RS)-1-ethynyl-2-methyl-2-pentenyl-(1RS,3RS)-2,2-dimethyl-3-(2-methylpropenyl)-cyclopropanecarboxylate]
- % Repellency (mosquitoes; Example 2, 2 patches 103 cm^2, 60 mg each, 0 min): 17
- % Repellency (mosquitoes; Example 2, 2 patches 103 cm^2, 60 mg each, 5 min): 33
- % Repellency (mosquitoes; Example 2, 2 patches 103 cm^2, 60 mg each, 10 min): 29
- % Repellency (mosquitoes; Example 2, 2 patches 103 cm^2, 60 mg each, 15 min): 29
- practical mosquito personal area repellency (result in words) (mosquitoes; Example 2, 2 patches 103 cm^2, 60 mg each, within 20 minutes): proved not to be an insect repellent capable of providing practical mosquito personal area repellency within 20 minutes

Compound: COP(=O)(OC)OC=C(Cl)Cl [DDVP, 2,2-dichlorovinyl dimethyl phosphate]
- Vapor pressure ([1]; @ 20° C.): 1.2 × 10^−5 mmHg @
- % Repellency (mosquitoes; Example 2, 4 patches 103 cm^2, 60 mg each, 0 min): 5
- % Repellency (mosquitoes; Example 2, 4 patches 103 cm^2, 60 mg each, 5 min): 11
- % Repellency (mosquitoes; Example 2, 4 patches 103 cm^2, 60 mg each, 10 min): 47
- % Repellency (mosquitoes; Example 2, 4 patches 103 cm^2, 60 mg each, 15 min): 95
- % Repellency (mosquitoes; Example 2, 4 patches 103 cm^2, 60 mg each, 20 min): 95
- personal area control (result in words) (mosquitoes; Example 2, 4 patches, each 103 cm^2 in gross area): successful personal area control
